Laboratory results published in article PMC11411711 (ACS Nano, 2024).
pIC50, pKi: −log10 of the molar value. Where two headings read alike, the source gives them in different places. Square brackets hold non-standard residues; d marks the D form. Peptide text beside a SMILES is read from it. * marks the point of attachment. 5FAM = O=C1OC2(c3ccc(O)cc3Oc3cc(O)ccc32)c2ccc(C(=O)*)cc21; Nle = CCCC[C@H](N)C(=O)O; Cbz = O=C(OCc1ccccc1)*

Key:
[1] = target: T1, recombinant human calpain-1 (Homo sapiens, UniProt P07384); assay: Inhibition of calpain-1 cleavage of CS FRET peptide by titrated CAST/ScrCAST; assay type: biochemical; details: up to 1 μM; 8 μM CS substrate; 26.6 nM recombinant human calpain-1; 37C
T1 sequence (P07384 1-714): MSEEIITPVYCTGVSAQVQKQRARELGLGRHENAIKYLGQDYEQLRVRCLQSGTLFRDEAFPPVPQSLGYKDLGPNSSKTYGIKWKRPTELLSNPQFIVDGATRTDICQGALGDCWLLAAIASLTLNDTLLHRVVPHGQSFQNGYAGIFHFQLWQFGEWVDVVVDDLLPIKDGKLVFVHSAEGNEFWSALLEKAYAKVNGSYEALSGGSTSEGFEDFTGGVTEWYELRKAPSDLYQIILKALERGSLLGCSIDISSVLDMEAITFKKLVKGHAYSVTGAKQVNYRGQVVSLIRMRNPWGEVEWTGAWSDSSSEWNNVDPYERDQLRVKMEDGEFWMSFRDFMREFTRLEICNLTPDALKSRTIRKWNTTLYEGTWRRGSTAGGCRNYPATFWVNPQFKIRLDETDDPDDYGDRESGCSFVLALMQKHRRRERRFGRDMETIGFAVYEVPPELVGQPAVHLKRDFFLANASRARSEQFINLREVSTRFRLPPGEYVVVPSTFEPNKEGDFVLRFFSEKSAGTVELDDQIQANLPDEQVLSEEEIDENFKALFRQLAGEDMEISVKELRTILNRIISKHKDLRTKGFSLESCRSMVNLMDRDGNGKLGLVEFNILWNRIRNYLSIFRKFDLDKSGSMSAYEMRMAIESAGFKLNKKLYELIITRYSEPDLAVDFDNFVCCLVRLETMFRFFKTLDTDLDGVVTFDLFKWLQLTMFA
T1 sequence (P04632 1-268 partner): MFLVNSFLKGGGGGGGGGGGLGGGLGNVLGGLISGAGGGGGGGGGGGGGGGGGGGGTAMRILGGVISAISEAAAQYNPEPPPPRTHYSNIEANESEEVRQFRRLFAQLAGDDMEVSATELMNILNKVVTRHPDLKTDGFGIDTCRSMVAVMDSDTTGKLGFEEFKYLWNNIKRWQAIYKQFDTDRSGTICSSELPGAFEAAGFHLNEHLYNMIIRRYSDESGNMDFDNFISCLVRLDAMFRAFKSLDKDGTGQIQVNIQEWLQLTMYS

[2] = system: calpain; details: cited from earlier work; for pIC50: read-out: IC50, calpain inhibitor; for pKi: read-out: Ki for calpain
[3] = system: TBI; details: large multicenter clinical trials in TBI; ref [4],[5]; cited from earlier work
[4] = target: cathepsin L; details: read-out: Ki for cathepsin L; calpastatin peptide; ref [32]−[35]; cited from earlier work
[5] = system: calpain; assay: Activated CS signal in injured cortex and hippocampus, CCI mouse model; details: mouse model of TBI, systemic administration
[6] = system: calpain activity in the hippocampus; assay: Activated CS in hippocampal regions; details: dentate gyrus, CA1, CA2, CA3; 1 h after injury; n = 10 mice, unpaired t-test
[7] = target: T1, recombinant human calpain-1; assay: CS activation of PEG conjugates by recombinant human calpain-1; assay type: biochemical; details: 37C, 1 h
[8] = target: calpain-2; details: read-out: Ki for calpain-2; calpain inhibitor II; ref [13],[24]; cited from earlier work
[9] = target: calpain-1; details: read-out: Ki for calpain-1; calpain inhibitor II; ref [13],[24]; cited from earlier work
[10] = system: neurofilament and spectrin proteolysis in the cortex; details: continuous intra-arterial infusion after TBI; ref [13],[24]; cited from earlier work
[11] = system: neuronal and hippocampal culture models of injury; details: ref [16]−[19]; cited from earlier work
[12] = target: cathepsin B; details: read-out: Ki for cathepsin B; calpain inhibitor II; ref [13],[24]; cited from earlier work

Which “detectable inhibitory activity on calpain-1” value [1] does the source give for “APRLEIVPTMYIYKLSPTGSEKLEDER-K(5FAM)-C-NH2 [ScrCAST]” here?
Its value is “does not have any detectable inhibitory activity up to 1 μM”.

With `CC(C)[C@H](NC(=O)OCc1ccccc1)C(=O)N[C@H](C=O)Cc1ccccc1` [MDL-28170] (Cbz-Val-Phe-aldehyde) as the compound, how does the pIC50 ([2]; MDL-28170, ref [64]) read?
Its pIC50 is 7.96.

What about the pKi ([2]; MDL-28170, ref [20],[28]) of the same compound?
The pKi was 8.00.

Which “efficacy as acute stage neuroprotective treatment” value [3] does the source give for `CC(=O)[C@H]1CC[C@H]2[C@@H]3CCC4=CC(=O)CC[C@]4(C)[C@H]3CC[C@]12C` [progesterone] here?
The value was “failed to establish efficacy as an acute stage neuroprotective treatment”.

With `CC[C@H](C)[C@H](NC(=O)[C@H](Cc1ccc(O)cc1)NC(=O)[C@@H](NC(=O)[C@H](CO)NC(=O)[C@H](CO)NC(=O)[C@H](CCSC)NC(=O)[C@@H]1CCCN1C(=O)[C@@H](N)CC(=O)O)[C@@H](C)O)C(=O)N[C@@H](CCC(=O)O)C(=O)N[C@@H](CCC(=O)O)C(=O)N[C@@H](CC(C)C)C(=O)NCC(=O)N[C@@H](CCCCN)C(=O)N[C@@H](CCCNC(=N)N)C(=O)N[C@@H](CCC(=O)O)C(=O)N[C@H](C(=O)N[C@H](C(=O)N[C@H](C(=O)N1CCC[C@H]1C(=O)N1CCC[C@H]1C(=O)N[C@@H](CCCCN)C(=O)N[C@@H](Cc1ccc(O)cc1)C(=O)N[C@@H](CCCNC(=N)N)C(=O)N[C@@H](CCC(=O)O)C(=O)N[C@@H](CC(C)C)C(=O)N[C@@H](CC(C)C)C(=O)N[C@@H](C)C(=O)N[C@@H](CCCCNC(=O)c1ccc2c(c1)C(=O)OC21c2ccc(O)cc2Oc2cc(O)ccc21)C(=O)N[C@@H](CS)C(N)=O)[C@@H](C)CC)[C@@H](C)O)C(C)C` [CAST] (H-DPMSSTYIEELGKREVTIPPKYRELLAK(5FAM)C-NH2; N-terminus assumed) as the compound, how does the pKi [4] read?
Its pKi is 5.22.

And the pKi ([2]; calpastatin peptide, ref [32]−[35])?
Its pKi is 7.37.

For “CAST–PEG–CS: 40 kDa 8-arm PEG scaffold modified with CAST and CS peptide (activity-based nanotheranostic) (chain 1 DPMSSTYIEELGKREVTIPPKYRELLAKC; chain 2 QEVYGAMPKGC; not fully specified; 5FAM on the added lysine; C-terminal amide; cysteine joined to the 8-arm PEG by maleimide chemistry | QSY21 on the N-terminus; Cy5 on the lysine; PEG2 spacer between K(Cy5) and GC; c)”, which “inhibition of calpain activity, cortical vs hippocampal neurons” value [5] is on record?
The value was “greater ABNT-mediated inhibition of calpain activity in cortical neurons compared to that in hippocampal neurons”.

And the “sensor activation in hippocampal regions” value [6]?
The value was “inhibits activation of CS in the injured hippocampus”.

And the “inhibition of calpain-1 at increased enzyme concentration” value ([7]; calpain-1 up to 6U (∼380 nM), 8 μM CS)?
The value was “able to inhibit activity and cleavage of the CS substrate compared to ScrCAST–PEG–CS”.

And the “CS activation by calpain-1” value ([7]; conjugates matched to 8 μM CS, 26.6 nM recombinant human calpain-1, Cy5 fluorescence)?
Its value is “no measured activation of CS peptide”.

With `CSCC[C@@H](C=O)NC(=O)[C@H](CC(C)C)NC(=O)[C@H](CC(C)C)NC(C)=O` [calpain inhibitor II] (Ac-Leu-Leu-Met-aldehyde) as the compound, how does the pKi [8] read?
Its pKi is 6.64.

And the pKi [9]?
The pKi was 6.92.

And the “neurofilament and spectrin proteolysis in the cortex” value [10]?
The value was “required continuous intra-arterial infusion after TBI to significantly reduce neurofilament and spectrin proteolysis in the cortex”.

And the “cell apoptosis, actin and spectrin proteolysis, DNA fragmentation” value [11]?
Its value is “reduce cell apoptosis, suppress actin and spectrin proteolysis, and inhibit DNA fragmentation”.

What about the pKi [12] of the same compound?
Its pKi is 7.00.

With `CCCC[C@@H](C=O)NC(=O)[C@H](CC(C)C)NC(=O)[C@H](CC(C)C)NC(C)=O` [calpain inhibitor I] (Ac-Leu-Leu-[Nle]-aldehyde) as the compound, how does the pIC50 ([2]; calpain inhibitor I, ref [63]) read?
Its pIC50 is 7.05.
